For experiment [1], the target named is Adenylate kinase 2, mitochondrial (Homo sapiens, UniProt P54819).
Experiment [2] addresses Serine/threonine-protein kinase/endoribonuclease IRE1 (Homo sapiens, UniProt O75460).
The target of experiment [3] is cAMP-dependent protein kinase catalytic subunit gamma (Homo sapiens, UniProt P22612).
Experiment [4] concerns the target Serine/threonine-protein kinase 16 (Homo sapiens, UniProt O75716).
Experiment [5] has as its target T1, STE20-related kinase adapter protein alpha (Homo sapiens, UniProt Q7RTN6).
T1 sequence (Q7RTN6 whole entry): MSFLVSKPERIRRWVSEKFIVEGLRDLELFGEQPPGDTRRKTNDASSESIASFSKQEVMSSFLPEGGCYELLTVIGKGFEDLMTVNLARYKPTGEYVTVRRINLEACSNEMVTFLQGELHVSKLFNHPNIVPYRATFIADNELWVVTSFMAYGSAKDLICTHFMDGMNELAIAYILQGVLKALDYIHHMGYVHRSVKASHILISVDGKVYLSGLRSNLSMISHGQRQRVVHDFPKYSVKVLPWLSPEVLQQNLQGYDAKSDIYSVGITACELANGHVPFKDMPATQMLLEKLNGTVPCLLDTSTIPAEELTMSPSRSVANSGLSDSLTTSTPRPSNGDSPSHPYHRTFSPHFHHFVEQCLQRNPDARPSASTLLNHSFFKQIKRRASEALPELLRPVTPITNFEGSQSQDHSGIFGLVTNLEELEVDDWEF

Experiment [6] concerns the target Calcium/calmodulin-dependent protein kinase kinase 2 (Homo sapiens, UniProt Q96RR4).
In experiment [7] the target is Ribosomal protein S6 kinase alpha-3 (Homo sapiens, UniProt P51812).
Chain of Ribosomal protein S6 kinase alpha-3 (P51812 whole entry): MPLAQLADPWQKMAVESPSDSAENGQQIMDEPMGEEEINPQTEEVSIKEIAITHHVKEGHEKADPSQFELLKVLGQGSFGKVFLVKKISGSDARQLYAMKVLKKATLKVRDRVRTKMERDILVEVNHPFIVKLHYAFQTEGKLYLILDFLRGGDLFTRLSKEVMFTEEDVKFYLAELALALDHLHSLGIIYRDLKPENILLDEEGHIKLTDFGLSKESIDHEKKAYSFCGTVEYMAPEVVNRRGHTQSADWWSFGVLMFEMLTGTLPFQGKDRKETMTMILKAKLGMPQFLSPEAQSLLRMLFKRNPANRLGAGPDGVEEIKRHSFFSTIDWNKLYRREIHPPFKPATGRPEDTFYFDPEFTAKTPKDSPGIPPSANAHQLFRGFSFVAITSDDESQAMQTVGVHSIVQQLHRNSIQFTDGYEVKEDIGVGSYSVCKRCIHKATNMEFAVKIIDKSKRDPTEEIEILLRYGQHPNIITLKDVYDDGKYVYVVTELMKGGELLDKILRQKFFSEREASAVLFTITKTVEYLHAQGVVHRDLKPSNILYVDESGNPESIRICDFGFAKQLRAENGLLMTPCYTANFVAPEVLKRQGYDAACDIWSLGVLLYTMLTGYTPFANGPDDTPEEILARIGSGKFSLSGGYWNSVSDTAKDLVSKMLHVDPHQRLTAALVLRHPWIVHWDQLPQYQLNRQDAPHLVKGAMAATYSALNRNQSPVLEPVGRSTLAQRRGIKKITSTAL
For another experiment, the target named is T2, Glycine--tRNA ligase (Homo sapiens, UniProt P41250).
T2 sequence (P41250 whole entry): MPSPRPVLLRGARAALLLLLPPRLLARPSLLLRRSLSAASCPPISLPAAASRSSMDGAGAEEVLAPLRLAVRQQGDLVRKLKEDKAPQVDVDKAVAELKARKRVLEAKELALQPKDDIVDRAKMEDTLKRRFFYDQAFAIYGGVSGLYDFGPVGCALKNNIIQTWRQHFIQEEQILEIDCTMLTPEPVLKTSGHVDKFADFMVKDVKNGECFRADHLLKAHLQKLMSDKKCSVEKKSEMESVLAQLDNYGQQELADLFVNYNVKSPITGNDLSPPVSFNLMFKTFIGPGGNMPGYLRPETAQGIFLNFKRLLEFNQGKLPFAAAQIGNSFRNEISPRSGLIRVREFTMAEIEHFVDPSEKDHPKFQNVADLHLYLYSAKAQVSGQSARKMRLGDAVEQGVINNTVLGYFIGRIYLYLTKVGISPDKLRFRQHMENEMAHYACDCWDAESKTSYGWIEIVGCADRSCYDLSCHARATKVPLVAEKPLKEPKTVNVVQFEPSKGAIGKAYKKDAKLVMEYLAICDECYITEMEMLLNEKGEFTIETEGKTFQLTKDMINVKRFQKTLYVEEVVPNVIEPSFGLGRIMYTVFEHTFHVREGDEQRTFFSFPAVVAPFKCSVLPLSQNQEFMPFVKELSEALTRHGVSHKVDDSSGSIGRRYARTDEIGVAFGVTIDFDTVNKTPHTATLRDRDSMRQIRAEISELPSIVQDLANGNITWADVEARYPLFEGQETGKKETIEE

Experiment [8] deals with T3, Cyclin-G-associated kinase (Homo sapiens, UniProt O14976).
T3 sequence (O14976 whole entry): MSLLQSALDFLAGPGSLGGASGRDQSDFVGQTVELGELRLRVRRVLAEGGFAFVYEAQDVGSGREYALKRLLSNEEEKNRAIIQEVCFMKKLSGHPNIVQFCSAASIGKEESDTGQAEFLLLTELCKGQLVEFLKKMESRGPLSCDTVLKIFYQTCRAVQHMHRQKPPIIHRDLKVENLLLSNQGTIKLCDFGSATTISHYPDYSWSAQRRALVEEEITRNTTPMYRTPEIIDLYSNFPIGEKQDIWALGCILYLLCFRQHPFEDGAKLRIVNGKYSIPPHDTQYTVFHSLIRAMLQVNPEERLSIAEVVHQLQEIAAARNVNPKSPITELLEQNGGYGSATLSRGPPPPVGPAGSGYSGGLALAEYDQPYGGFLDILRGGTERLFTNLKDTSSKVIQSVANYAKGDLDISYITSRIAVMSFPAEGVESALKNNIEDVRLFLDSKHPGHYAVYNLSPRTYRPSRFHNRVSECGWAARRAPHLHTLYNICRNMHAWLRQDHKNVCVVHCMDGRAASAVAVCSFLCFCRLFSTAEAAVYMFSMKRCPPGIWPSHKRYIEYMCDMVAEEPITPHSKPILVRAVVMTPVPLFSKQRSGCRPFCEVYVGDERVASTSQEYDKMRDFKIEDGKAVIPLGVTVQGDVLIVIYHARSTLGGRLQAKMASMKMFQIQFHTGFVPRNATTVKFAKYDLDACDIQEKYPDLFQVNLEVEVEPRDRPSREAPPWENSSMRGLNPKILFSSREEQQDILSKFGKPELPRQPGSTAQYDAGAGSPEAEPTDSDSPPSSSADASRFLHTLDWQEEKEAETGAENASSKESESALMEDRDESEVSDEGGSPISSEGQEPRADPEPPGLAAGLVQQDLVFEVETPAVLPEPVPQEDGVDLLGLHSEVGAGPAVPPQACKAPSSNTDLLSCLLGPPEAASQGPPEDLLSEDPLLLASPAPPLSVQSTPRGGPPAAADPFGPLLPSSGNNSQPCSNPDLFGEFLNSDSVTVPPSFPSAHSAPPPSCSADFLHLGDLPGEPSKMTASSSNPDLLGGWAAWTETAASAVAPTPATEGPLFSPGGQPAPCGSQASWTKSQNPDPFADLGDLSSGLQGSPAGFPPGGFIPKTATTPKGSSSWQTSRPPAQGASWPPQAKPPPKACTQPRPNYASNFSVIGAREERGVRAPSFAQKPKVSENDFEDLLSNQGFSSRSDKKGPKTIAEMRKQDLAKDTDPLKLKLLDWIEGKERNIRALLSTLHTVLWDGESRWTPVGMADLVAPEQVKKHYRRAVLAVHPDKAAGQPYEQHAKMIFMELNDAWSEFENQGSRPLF

Molecules are shown by their SMILES. Active and inactive are the calls of the source. Cut-off read from the data, not from the text of the source, for most assays here: actives have a measured Kd and inactives only a lower limit.
Note: in the data inactive means no Kd found up to 30 µM.

Chain of Serine/threonine-protein kinase/endoribonuclease IRE1 (O75460 whole entry): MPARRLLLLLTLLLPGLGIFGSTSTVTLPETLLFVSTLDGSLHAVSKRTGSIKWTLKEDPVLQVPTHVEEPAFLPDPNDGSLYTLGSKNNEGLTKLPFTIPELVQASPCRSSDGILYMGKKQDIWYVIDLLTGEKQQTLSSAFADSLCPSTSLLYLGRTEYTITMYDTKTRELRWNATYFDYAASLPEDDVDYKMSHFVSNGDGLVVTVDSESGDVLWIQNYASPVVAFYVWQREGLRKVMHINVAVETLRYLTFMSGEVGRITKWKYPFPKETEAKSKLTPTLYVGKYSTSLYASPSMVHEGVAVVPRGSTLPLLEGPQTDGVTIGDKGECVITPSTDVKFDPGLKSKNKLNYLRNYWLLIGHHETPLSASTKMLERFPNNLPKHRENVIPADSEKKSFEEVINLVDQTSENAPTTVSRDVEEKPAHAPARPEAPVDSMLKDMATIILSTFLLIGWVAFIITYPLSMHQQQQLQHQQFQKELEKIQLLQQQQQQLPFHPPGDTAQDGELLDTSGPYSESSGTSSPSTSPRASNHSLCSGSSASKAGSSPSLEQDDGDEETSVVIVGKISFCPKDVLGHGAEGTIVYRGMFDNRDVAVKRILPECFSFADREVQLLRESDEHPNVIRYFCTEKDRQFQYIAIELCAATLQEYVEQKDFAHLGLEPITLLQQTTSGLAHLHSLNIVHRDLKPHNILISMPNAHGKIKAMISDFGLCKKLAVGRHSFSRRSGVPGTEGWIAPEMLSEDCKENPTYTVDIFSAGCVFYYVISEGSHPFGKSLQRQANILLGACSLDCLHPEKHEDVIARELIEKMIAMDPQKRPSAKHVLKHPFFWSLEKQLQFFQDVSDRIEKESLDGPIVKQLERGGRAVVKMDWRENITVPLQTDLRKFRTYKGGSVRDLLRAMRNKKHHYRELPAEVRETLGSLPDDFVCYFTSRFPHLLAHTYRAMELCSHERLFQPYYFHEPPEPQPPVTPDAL
Chain of Calcium/calmodulin-dependent protein kinase kinase 2 (Q96RR4 whole entry): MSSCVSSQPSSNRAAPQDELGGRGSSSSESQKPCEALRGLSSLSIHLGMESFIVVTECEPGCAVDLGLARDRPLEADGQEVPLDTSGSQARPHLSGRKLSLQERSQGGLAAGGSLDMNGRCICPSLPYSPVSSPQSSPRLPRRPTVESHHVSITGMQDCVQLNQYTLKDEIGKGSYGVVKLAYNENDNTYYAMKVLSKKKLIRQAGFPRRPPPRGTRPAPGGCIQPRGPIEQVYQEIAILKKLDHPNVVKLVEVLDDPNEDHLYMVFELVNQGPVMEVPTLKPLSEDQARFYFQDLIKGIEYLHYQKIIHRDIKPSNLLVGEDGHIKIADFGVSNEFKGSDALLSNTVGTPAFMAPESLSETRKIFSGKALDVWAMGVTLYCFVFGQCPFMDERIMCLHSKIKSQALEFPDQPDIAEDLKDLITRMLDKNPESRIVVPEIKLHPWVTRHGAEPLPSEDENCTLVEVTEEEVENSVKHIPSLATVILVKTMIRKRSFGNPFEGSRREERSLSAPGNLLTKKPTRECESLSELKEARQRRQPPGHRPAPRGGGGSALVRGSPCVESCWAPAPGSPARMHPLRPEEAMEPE
Chain of Serine/threonine-protein kinase 16 (O75716 whole entry): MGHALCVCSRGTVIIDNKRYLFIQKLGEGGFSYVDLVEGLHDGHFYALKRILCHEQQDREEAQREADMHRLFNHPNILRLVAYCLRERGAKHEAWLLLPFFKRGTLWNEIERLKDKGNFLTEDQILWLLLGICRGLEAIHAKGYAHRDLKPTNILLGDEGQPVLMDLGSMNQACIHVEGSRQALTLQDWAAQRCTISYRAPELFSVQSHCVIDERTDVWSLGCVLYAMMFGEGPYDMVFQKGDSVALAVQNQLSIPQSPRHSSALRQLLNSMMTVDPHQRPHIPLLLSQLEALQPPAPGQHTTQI
Chain of cAMP-dependent protein kinase catalytic subunit gamma (P22612 whole entry): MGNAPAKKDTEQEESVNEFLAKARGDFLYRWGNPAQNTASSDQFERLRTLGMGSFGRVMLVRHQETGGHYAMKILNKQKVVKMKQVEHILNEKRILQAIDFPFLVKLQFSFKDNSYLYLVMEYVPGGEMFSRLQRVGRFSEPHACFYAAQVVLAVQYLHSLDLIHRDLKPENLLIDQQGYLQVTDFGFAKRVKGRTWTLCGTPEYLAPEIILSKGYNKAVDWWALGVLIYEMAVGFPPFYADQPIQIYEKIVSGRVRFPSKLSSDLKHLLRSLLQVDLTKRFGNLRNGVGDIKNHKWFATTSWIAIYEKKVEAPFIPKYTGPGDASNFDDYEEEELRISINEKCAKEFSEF

In general, Kd refers to the free concentration of one partner at which half of the binding sites on the other are occupied at equilibrium, for simple one-to-one binding. On to `Cn1cc(-c2cnn3c(N)c(Br)c([C@@H]4CCCNC4)nc23)cn1` [SCH-900776], for which the Kd in experiment [1], in experiment [2], in [3], in experiment [4], in experiment [5] and in experiment [6] was > 30 µM (inactive) throughout. The Kd (in [7]; at Glycine--tRNA ligase; in experiment [8]) was > 30 µM (inactive) in each case.
`CCS(=O)(=O)c1cccc(-c2cc(C(=O)NC3CCN(C)CC3)c(C)c3[nH]c4ncc(C)cc4c23)c1` [TAK-901]: the Kd is > 30 µM (inactive) in [1]; > 30 µM (inactive) in [2]; > 30 µM (inactive) in experiment [3]; 0.849 µM (active) in [4]; > 30 µM (inactive) in experiment [5]; > 30 µM (inactive) in experiment [6]. In addition, the Kd in experiment [7] is 6 µM (active); on Glycine--tRNA ligase, > 30 µM (inactive); in experiment [8] it was > 30 µM (inactive).
Consider `CO[C@H]1C[C@@H]2CC[C@@H](C)[C@@](O)(O2)C(=O)C(=O)N2CCCC[C@H]2C(=O)O[C@H]([C@H](C)C[C@@H]2CC[C@@H](OC(=O)C(C)(CO)CO)[C@H](OC)C2)CC(=O)[C@H](C)/C=C(\C)[C@@H](O)[C@@H](OC)C(=O)[C@H](C)C[C@H](C)/C=C/C=C/C=C/1C` [TEMSIROLIMUS], for which the Kd in experiment [1], in [2], in experiment [3], in experiment [4], in experiment [5] and in experiment [6] was > 30 µM (inactive) throughout. Moreover, the Kd (in experiment [7]; on Glycine--tRNA ligase; in experiment [8]) was > 30 µM (inactive) in each case.
Consider `COc1cc2c(Nc3ccc(Cl)c(Cl)c3F)ncnc2cc1OC[C@@H]1C[C@@H]2CN(C)C[C@@H]2C1` [TESEVATINIB], for which the Kd in [1], in [2], in experiment [3], in [4], in experiment [5] and in experiment [6] was > 30 µM (inactive) in each case. In addition, the Kd in experiment [7] is > 30 µM (inactive); at Glycine--tRNA ligase, > 30 µM (inactive); in [8], 0.615 µM (active).
Consider `C[C@@H](NC(=O)c1ncnc(N)c1Cl)c1ncc(C(=O)Nc2cc(C(F)(F)F)c(Cl)cn2)s1` [TOVORAFENIB], for which the Kd in [1], in experiment [2], in [3], in experiment [4], in experiment [5] and in [6] was > 30 µM (inactive) each time. Moreover, the Kd (in [7]; on Glycine--tRNA ligase; in [8]) was > 30 µM (inactive) each time.
Consider `Cc1cc(Nc2ncnc3ccc(NC4=NC(C)(C)CO4)cc23)ccc1Oc1ccn2ncnc2c1` [TUCATINIB], for which the Kd in experiment [1], in experiment [2], in [3], in experiment [4], in experiment [5] and in experiment [6] was > 30 µM (inactive) each time. Besides, the Kd (in experiment [7]; at Glycine--tRNA ligase; in [8]) was > 30 µM (inactive) each time.
As to `Cn1ncc(Cl)c1-c1cc(C(=O)N[C@H](CN)Cc2ccc(F)c(F)c2)oc1Cl` [UPROSERTIB], the Kd in experiment [1], in experiment [2], in experiment [3], in experiment [4], in experiment [5] and in [6] was > 30 µM (inactive) throughout. For the same molecule, the Kd (in [7]; at Glycine--tRNA ligase; in experiment [8]) was > 30 µM (inactive) each time.
`CC(C)c1cc(CNc2nc(Nc3cc(C4CC4)[nH]n3)cc(N3CCN(C)CC3)n2)on1` [XL-228]: the Kd is > 30 µM (inactive) in experiment [1]; > 30 µM (inactive) in experiment [2]; > 30 µM (inactive) in experiment [3]; > 30 µM (inactive) in experiment [4]; > 30 µM (inactive) in experiment [5]; 2.34 µM (active) in experiment [6]. Also, the Kd (in experiment [7]; on Glycine--tRNA ligase; in [8]) was > 30 µM (inactive) throughout.
`C[C@@H](N)c1ccc(C(=O)Nc2ccnc3[nH]ccc23)cc1` [Y-39983]: the Kd in experiment [1], in [2], in experiment [3], in experiment [4], in experiment [5] and in experiment [6] was > 30 µM (inactive) each time. The Kd (in experiment [7]; at Glycine--tRNA ligase; in experiment [8]) was > 30 µM (inactive) each time.
Turning to `CN1C/C=C/CCOc2cccc(c2)-c2ccnc(n2)Nc2cccc(c2)C1` [ZOTIRACICLIB], the Kd in experiment [1], in [2], in [3], in [4], in [5] and in experiment [6] was > 30 µM (inactive) each time. Also, the Kd (in experiment [7]; at Glycine--tRNA ligase; in experiment [8]) was > 30 µM (inactive) throughout.

The values above are taken from ChEMBL document CHEMBL3991601, “The target landscape of clinical kinase drugs” (Science, 2017).
